# Data taken from patent publication US5886026A, “Anti-angiogenic compositions and methods of use” (priority 1994, dated 1999).
# Columns and labels:
# [1] = Release from ELVAX:poly-l-lactic acid microspheres, 18 hours tumbling at 37° C.; format: physicochemical
# c-fos = c-fos expression in chondrocytes (Northern blot); format: cell-based, bovine; conditions: 10^-6 to 10^-8 M
# Method: Human recombinant TNFα was dissolved in phosphate buffered saline (PBS) with 0.1% bovine serum albumin (BSA). Total RNA from bovine articular chondrocytes was isolated by the acidified guanidine isothiocyanate method and the levels of c-fos mRNA determined by Northern blot analysis. Denatured RNA samples (12 μg) were analyzed by gel electrophoresis in a denaturing 1% agarose gel, transferred to a nylon membrane (Bio-Rad), cross-linked with an ultraviolet cross-linker (Stratagene UV stratalinker 1800), and hybridized with ^32 P-labeled rat c-fos DNA. mRNA for tubulin and total RNA were used as controls. To determine tubulin mRNA, the blots described above were subsequently stripped of DNA and re-probed with ^32 P-labeled rat P-tubulin cDNA. This experimented was conducted three times and the data collated.
# normal chondrocytes = experiment: Chondrocyte viability (Trypan blue); format: cell-based; conditions: 72 hours
# synovial fibroblasts = experiment: Synoviocyte proliferation (Trypan blue); format: cell-based, bovine; conditions: 24 hours
# neutrophils = experiment: Neutrophil viability (LDH release); conditions: 46 μM, one hour, 37° C.
# Method: Neutrophils were prepared from freshly collected human citrated whole blood. Briefly, 400 ml of blood were mixed with 80 ml of 4% dextran T500 (Pharmacia LKB, Biotechnology AB Uppsala, Sweden) in HBSS and allowed to settle for 1 h. Plasma was collected continuously and 5 ml applied to 5 ml of Ficoll Paque (Pharmacia) in 15 ml polypropylene tubes (Coming, N.Y.). Following centrifugation at 500×g for 30 min, the neutrophil pellets were washed free of erythrocytes by 20 s of hypotonic shock. Neutrophils were resuspended in HBSS, kept on ice and used for experiments within 3 h. Neutrophil viability and purity was always greater than 90%.
# Cells were incubated for 20 minutes at 33° C. then for 10 minutes at 37° C. before addition to crystals or zymosan.
# collagenase = experiment: IL-1 induced collagenase expression in chondrocytes (Northern blot); format: cell-based, bovine; conditions: 10^-6 M
# Method: C-fos is an oncogene transcription factor shown to be involved and required for the induction of genes involved in cell proliferation and collagenase expression. […] When IL-1 is administered to chondrocytes in vitro there is a transient increase in fos mRNA levels which peak 30-60 minutes later, while collagenase mRNA is detected 9 hours later and continues to increase up to 12 hours (data not shown) after IL-1 stimulation. The fos and collagenase mRNA can be detected using the respective cDNA probes and analyzed by Northern blot analysis. This allows the determination of agents capable of inhibiting collagenase production and an approximation of the step in the collagenase synthetic pathway that is affected by the treatment.
# The cells were then incubated for a further 16 hours. Total RNA from bovine articular chondrocytes was isolated by the acidified guanidine isothiocyanate method and the collagenase mRNA determined by Northern blot analysis. The RNA samples were prepared as described above using ^32 P-labeled rat collagenase cDNA.
smiles,measurement,setting,value
CC(=O)O[C@H]1C(=O)[C@@]2(C)[C@H]([C@H](OC(=O)c3ccccc3)[C@]3(O)C[C@H](OC(=O)[C@H](O)[C@@H](NC(=O)c4ccccc4)c4ccccc4)C(C)=C1C3(C)C)[C@]1(OC(C)=O)CO[C@@H]1C[C@@H]2O [paclitaxel],released from the microspheres,[1]; fluorescence,6%
same,released from the microspheres,[1]; uv/vis,10.3%
same,total RNA and tubulin expression,c-fos,similarly unaffected
same,c-fos expression,c-fos; TNF stimulated,does not alter c-fos expression at any concentration
same,cytotoxicity to normal chondrocytes,normal chondrocytes,no cytotoxicity to normal chondrocytes
same,viability of normal chondrocytes,normal chondrocytes; up to 10^-5 M,does not affect the viability of normal chondrocytes
same,toxicity to synovial fibroblasts,synovial fibroblasts; 10^-6 M and 10^-5 M,toxic to the synovial fibroblasts in vitro
same,cytotoxicity to proliferating synovial fibroblasts,synovial fibroblasts,cytotoxic to proliferating synovial fibroblasts in a concentration dependent manner
same,minimal effective concentration,"synovial fibroblasts; Bos taurus, Fibroblast, read-out: lowest concentration inhibiting proliferation",≤ 0.1 µM
same,cell death,neutrophils,did not cause cell death
same,collagenase mRNA,collagenase,not detectable above background
same,inhibition of IL-1 induced collagenase expression,collagenase,completely inhibited
